The values that follow come from US9609810B2, “Methods for modulating photosynthetic activity” (priority 2012, dated 2017).

Common to all, as to assay type: in vivo
Experiment [1] deals with dwarf sunflower (Helianthus annuus L.) plants. The experiment in a line: Stomata conductance and transpiration in greenhouse-grown plants. As to conditions: foliar application of aqueous 10 ppm NaHS, pH 7.4, once per evening for one week; compared to control plants. From the text:
In the following example, a treatment group of dwarf sunflower (Helianthus annuus L.) plants is sprayed once each evening with an aqueous “treatment solution” of 10 ppm sodium hydrosulfide (NaHS) in distilled water, buffered with phosphate, to a pH of 7.4. The control group of plants is sprayed once each evening with an equivalent amount of “control solution” consisting of distilled water buffered with phosphate to a pH of 7.4. The treatment and control groups each include seven plants. The dwarf sunflower plants are grown from seed in 20-cm diameter plastic pots. Each pot contains one plant growing in a peat, sand mixture. […]
Stomata conductance is measured with a steady state porometer (LiCor model LI-1600, LiCor Inc., Lincoln, Nebr.). Measurements are made on the abaxial leaf surfaces where the majority of stomata are located and are recorded after the treated group and the control group are sprayed once per evening for one week.
The transpiration rate is determined by calculating the vapor pressure at the evaporating surface (leaf) and the air vapor pressure. The saturated vapor pressure of the leaf is calculated by measuring leaf temperature. Leaf temperature is measured using an external thermocouple as well as the LICor porometer. […] Relative humidity is determined using a sling psychrometer. […] Averages for 7 plants of each group are calculated and plotted.

Another experiment relates to corn (Zea Maize). The experiment in a line: Water used to irrigate corn grown under field conditions. As to conditions: end of growing season; compared to non-treated control corn. From the text: In the following example, a treatment group of corn (Zea Maize) is sprayed once each evening with an aqueous “treatment solution” of 10 ppm sodium hydrosulfide (NaHS) in distilled water, buffered with phosphate, to a pH of 7.4. The control group of plants is sprayed once each evening with an equivalent amount of “control solution” consisting of distilled water buffered with phosphate to a pH of 7.4. An experimental plot may be setup with 8 repetitions to obtain statistically independent results. The treatment (aqueous NaHS) and control (water alone) plots may be set up following a randomized scheme. […]
Water Use Measurements. […] This allows the measurement of water used in every single plot such that evaluation of water use differences between the water-alone control crops and NaHS treated crops can be monitored. The system is installed in such a way that every plant may receive a given amount of water determined by using constant rate water applicators. […] Soil water content (SWC) is measured continuously, using a Time Domain Reflectometer sensor installed in each of the twenty-four rows. […] The sensors are monitored by a datalogger (model 23X, Campbell Scientific Inc., Logan, Utah). The probes may be 30 cm long, and can be buried vertically, such that average volumetric water content of the top 30 cm of the soil is measured. […] The soil water content may be measured every 60 seconds. […]

The test system of experiment [2] is potted pepper (Capsicum sp.) plants. The experiment in a line: Transpiration reduction in pepper plants grown in a growth chamber. As to conditions: compared to control plants. The method, then:
In the following example, a treatment group of potted pepper (Capsicum sp.) plants is sprayed once each evening with an aqueous “treatment solution” of 10 ppm sodium hydrosulfide (NaHS) in distilled water, buffered with phosphate, to a pH of 7.4. The control group of plants is sprayed once each evening with an equivalent amount of “control solution” consisting of distilled water buffered with phosphate to a pH of 7.4. Potted pepper plants are grown in a temperature controlled growth-chamber under metal halide lamps. Average temperature in the growth chamber is about 20° C., and relative humidity is about 60%. Pots contain a greenhouse mix peat soil enriched with slow release fertilizer. Environmental conditions (light, temperature, and relative humidity) inside the growth chamber are monitored every 30 minutes during the experiment using standard environmental sensors such as a pyranometer, thermocouple psychrometer, relative humidity sensor and a datalogger. […]
The treatment solution of aqueous sodium hydrosulfide (NaHS) is sprayed once each night onto the top surface and bottom surface of leaves as described in Example 1 using a simple hand sprayer. The control group receives the same quantity of water alone which is sprayed each night onto the leaves in the same fashion as the treated group. […]

SMILES strings stand for the structures.

For the compound `S` [NaHS, sodium hydrosulfide], the stomata conductance entry in experiment [1] is listed as “decrease in stomata conductance”. In addition, the “biomass production (total dry matter)” value in the experiment with corn (Zea Maize) is recorded as “higher biomass production”. The transpiration result in experiment [2] (optimally watered plants sprayed each night with 10 ppm NaHS) is given as “reduction in transpiration”. For the same compound, the cumulative water use entry in experiment [2] (water stress conditions, sprayed each night with 10 ppm NaHS) is “cumulative water use in control plants is consistently higher”.
